US12714682B2, “Calixarene compounds and uses thereof” (UNIVERSITÄT WIEN, priority 2019, dated 2026)
Entries after “also recorded” stand apart in the source; their conditions may differ.

Experiments:
[1] = test system: THP-1 human monocytic cell line; test: LPS-stimulated THP-1 macrophage cytokine production (LEGENDplex); assay type: cell-based
Experimental: A specific anti-inflammatory effect or activity of a compound is proven, if the compound can decrease the production of one of IL-1B, IL-6 and TNFα in human THP1 macrophages following LPS stimulation, as determined by a standard assay: THP-1 human monocytic cell lines are treated with 100 nM of Phorbol 12-myristate 13-acetate (PMA) for 48 h to induce mature macrophage-like state. Cells are then stimulated with 100 ng/ml of LPS in the absence and presence of 500 μM of compound. After 6 hours, supernatants of treated and untreated cells are collected, and cytokine levels determined using the Human Inflammatory panel LEGENDplex Human Pro-inflammatory Chemokine Panel (Cat. No. 740118). A positive result is considered if the compound is capable of reduce or block the production of IL-1β, IL-6, and TNFα in human THP1 macrophages after LPS stimulation.
Following cells were treated with [10 ng/ml] LPS in the absence and presence 10, 100 and 500 μM of SCA-744. Cytokine levels were determined by LEGENDplex™ Human Inflammation Panel assay from BioLegend. The bar heights represent the concentration means compared to LPS alone of 3 independent experiments carried out in triplicates.
Cells were treated with 100 nM of Phorbol 12-myristate 13-acetate (PMA) for 48 h to induce mature macrophage-like state. Cells were then stimulated with 100 ng/ml of Lipopolysaccharides (LPS) in the absence and presence of 500 μM of SCA-744. After 6 hours, supernatants of treated and untreated cells were collected and the levels of three major pro-inflammatory cytokines TNF-α, IL-6 and IL-1ß were determined using the Human Inflammatory panel of LEGENDPLEX Multi-Analyte Flow assay.

aged mice = test: Lung lysate cytokines in aged mice (animal model of ageing); assay type: in vivo; conditions: 30 mg/kg i.p., 2 or 3 days intervals for 2 weeks
Experimental: In a second set of experiments, the anti-inflammatory effect of SCA-744 was tested in vivo, in an animal model of ageing. It is well established that the ageing process is associated with low-grade inflammation. Mice older than 18 months show many characteristics of aged humans and are considered as a relevant model of human ageing. […] After treatment of aged mice (5 mice/group) with SCA-744 for 2 weeks (at 2 or 3 days intervals at 30 mg/kg dose, i.p.), lungs of the mice were harvested and lysates were prepared. Cytokine levels were determined by LEGENDplex™ Mouse Inflammation Panel assay from BioLegend. […] Importantly, the anti-inflammatory cytokine IL-10 was not affected by SCA-744.

mice = test: CFA-induced chronic arthritis model: joint histology; assay type: in vivo; conditions: 60 mg/kg i.p. daily, 21-day period
Experimental: The chronic arthritis was induced by intraplantar (i.pl.) injection of 20 μl complete Freund's adjuvant (CFA, heat-killed Mycobacterium suspended in paraffin oil, 1 mg/ml; Sigma Aldrich, St. Louis, MO, USA) into the right hind paw and 20 μl subcutaneously (s.c.) into the tail root. An additional s.c. injection (20 μl) was administered on the following day (day 1) into the tail root in order to potentiate the systemic effects mimicking the human condition.
The excised tibiotarsal joints are fixed in 4% buffer formaldehye, decalcified and paraffin-embedded, sliced into sections (5 μm) and stained with hematoxylin and esosin. Arthritic changes are scored by a blinded observer using a scale of 0 to 3 according to 1) mononuclear cells infiltration into areolar tissue, 2) synovial hyperplasia, 3) cartilage destruction, 4) bone erosion.

[2] = Cytotoxicity, CellTiter-Glo cell viability; assay type: cell-based; conditions: human, HEK 293 cells (printed as HEK 293 neuroblastoma cell lines), 72 h treatment, read-out: EC50 cytotoxicity (cell viability, ATP)
Experimental: FIG. 19.: In-vitro assessment of SCA-744 (A) and SCA-754 (B) cytotoxicity. Experiments were performed using HEK 293 […] cell lines. The effect of SCA-744 and SCA-754 on cell viability was assessed using a standard ATP, CellTiter-Glo® Luminescent Cell Viability Assay following 72 hours treatment.
In vitro assessment of cytotoxicity of SCA-744 and SCA-754 in mammalian cells. 72 h following SCA-744 and SCA-754-treatment, cell viability was assessed using a standard ATP method, CellTiter-Glo® Luminescent Cell Viability Assay.

neuroblastoma cells = test: Protection from MPP+ induced oxidative stress, CellTiter-Glo viability; assay type: cell-based
Experimental: Several in-vivo and in-vitro studies find that MPP+ exerts oxidative stress on cells^22. MPP+×toxicity is based on its uptake into dopaminergic neurons. MPP+ accumulate into the mitochondria, inhibiting the complex-I leading to ATP depletion, increased reactive oxygen species (ROS) production, and apoptotic cell death^23. 12 h following MPP+ treatment and SCA-744 and CAL-X incubation, cell viability was assessed using a standard ATP method, CellTiter-Glo® Luminescent Cell Viability Assay.

## O=S(=O)(O)c1cc2c(O)c(c1)Cc1cc(S(=O)(=O)O)cc(c1O)Cc1cc(S(=O)(=O)O)cc(c1O)Cc1cc(S(=O)(=O)O)cc(c1O)C2 [SCA-744, 4-sulfocalix[4]arene]
[1]; 10 ng/ml LPS, 10, 100 and 500 μM, FIG. 2
  inhibition of LPS-induced TNF-α, IL-ß and IL-6: Dose-dependent inhibition
[1]; 500 μM, 100 ng/ml LPS, 6 hours, PMA-differentiated THP-1
  pro-inflammatory cytokine levels (TNF-α, IL-6, IL-1ß) in culture supernatant: significantly decreased
Aged mice
  IL-6, TNF-α and lipocalin (LCN2) in lung lysates: Significantly decreased amounts
  anti-inflammatory cytokine IL-10 in lung lysates: not affected
mice
  synovial hyperplasia score (scale 0 to 3): significantly lower
[2]
  EC50 at 72 h: 2000 µM
Neuroblastoma cells; 0.1-1000 μM, 12 h
  protection from MPP+ induced apoptosis / damage: protects against oxidative stress from MPP+ induced damage; also recorded: protected neuroblastoma cells from MPP+ induced apoptosis
Neuroblastoma cells; 12 h following MPP+ treatment, CellTiter-Glo
  concentration for MPP+ protection: 1 µM
